According to ChEMBL document CHEMBL4334470, “Small molecule modulators targeting protein kinase CK1 and CK2” (Eur J Med Chem, 2019):

What was measured:
Casein kinase I = assay: Inhibition of CK1 (unknown origin); type: protein assay, Homo sapiens
[1] = target: T1, Casein kinase II subunit alpha (Homo sapiens, UniProt P68400); assay: Inhibition of CK2alpha (unknown origin) using RRRADDSDDDDD as substrate in presence of [gamma33P]-ATP by autoradiography
[2] = target: T1, Casein kinase II subunit alpha; assay: Inhibition of CK2alpha (unknown origin)
[3] = target: Casein kinase I delta/epsilon (Homo sapiens, UniProt P48730+P49674); assay: Inhibition of CK1delta/CK1epsilon (unknown origin); type: protein-complex assay
[4] = target: Casein kinase I isoform alpha (Homo sapiens, UniProt P48729); assay: Inhibition of CK1alpha (unknown origin)
Chain of Casein kinase I isoform alpha (P48729 whole entry, canonical isoform): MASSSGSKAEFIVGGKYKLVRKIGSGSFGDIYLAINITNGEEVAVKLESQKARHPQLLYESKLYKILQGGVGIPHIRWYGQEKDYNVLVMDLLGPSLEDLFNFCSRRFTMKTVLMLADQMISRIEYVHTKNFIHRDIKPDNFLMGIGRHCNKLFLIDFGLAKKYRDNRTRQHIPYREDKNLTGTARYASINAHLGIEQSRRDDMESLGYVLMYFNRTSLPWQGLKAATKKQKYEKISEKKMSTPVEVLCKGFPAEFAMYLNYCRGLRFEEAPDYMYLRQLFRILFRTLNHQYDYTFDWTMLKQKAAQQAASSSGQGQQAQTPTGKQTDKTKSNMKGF

T1 sequence (P68400 whole entry): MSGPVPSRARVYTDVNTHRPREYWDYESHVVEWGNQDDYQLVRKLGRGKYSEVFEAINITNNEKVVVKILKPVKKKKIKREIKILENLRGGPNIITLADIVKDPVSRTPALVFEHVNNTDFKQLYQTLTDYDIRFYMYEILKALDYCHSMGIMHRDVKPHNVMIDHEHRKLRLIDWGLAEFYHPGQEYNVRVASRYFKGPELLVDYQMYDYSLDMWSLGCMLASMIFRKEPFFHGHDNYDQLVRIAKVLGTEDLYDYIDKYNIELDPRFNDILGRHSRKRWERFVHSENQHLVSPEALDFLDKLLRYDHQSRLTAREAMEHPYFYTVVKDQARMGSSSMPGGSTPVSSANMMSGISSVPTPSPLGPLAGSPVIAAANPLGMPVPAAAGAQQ
Chain of Casein kinase I delta/epsilon (P48730 whole entry, canonical isoform): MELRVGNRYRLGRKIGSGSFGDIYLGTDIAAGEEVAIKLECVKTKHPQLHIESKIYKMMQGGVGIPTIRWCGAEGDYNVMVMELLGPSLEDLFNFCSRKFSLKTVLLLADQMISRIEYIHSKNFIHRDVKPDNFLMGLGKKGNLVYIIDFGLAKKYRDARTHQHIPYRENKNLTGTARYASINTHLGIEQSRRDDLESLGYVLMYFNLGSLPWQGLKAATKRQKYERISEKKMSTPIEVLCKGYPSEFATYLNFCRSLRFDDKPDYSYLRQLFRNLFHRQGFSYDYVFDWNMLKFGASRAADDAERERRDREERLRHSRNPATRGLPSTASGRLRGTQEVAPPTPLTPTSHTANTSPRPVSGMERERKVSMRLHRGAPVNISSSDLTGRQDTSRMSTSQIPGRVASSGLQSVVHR
Chain of Casein kinase I delta/epsilon (P49674 whole entry, canonical isoform): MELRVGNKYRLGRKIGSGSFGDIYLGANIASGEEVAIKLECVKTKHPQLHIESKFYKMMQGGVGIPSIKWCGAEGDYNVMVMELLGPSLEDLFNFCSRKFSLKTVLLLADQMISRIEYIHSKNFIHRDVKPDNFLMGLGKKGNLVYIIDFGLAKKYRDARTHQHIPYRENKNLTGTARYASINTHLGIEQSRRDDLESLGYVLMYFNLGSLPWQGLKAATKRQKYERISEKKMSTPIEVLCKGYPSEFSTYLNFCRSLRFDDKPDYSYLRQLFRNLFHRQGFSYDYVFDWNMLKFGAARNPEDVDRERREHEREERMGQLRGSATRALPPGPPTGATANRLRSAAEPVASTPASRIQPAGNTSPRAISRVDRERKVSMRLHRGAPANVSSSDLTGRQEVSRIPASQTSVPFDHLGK

Row | SMILES | Ki [2] [nM] | further results
1 | NCCNS(=O)(=O)c1ccc(Cl)c2ccncc12 | – | IC50 (Casein kinase I): 9500 nM
2 | O=C(O)/C=C/c1cc(Br)c(Br)c(Br)c1Br | – | Ki [1]: 77 nM
3 | O=c1oc2c(O)c(O)cc3c(=O)oc4c(O)c(O)cc1c4c23 [ELLAGIC ACID] | 20 | –
4 | O=C1c2c(O)cccc2C(=O)c2c([N+](=O)[O-])ccc(O)c21 | 800 | –
5 | O=c1c2c(O)cccc2oc2c([N+](=O)[O-])ccc(O)c12 | 780 | –
6 | Cc1c(Br)c(=O)oc2c(Br)c(O)ccc12 | 60 | –
7 | O=c1c(O)c(-c2ccc(O)c(O)c2)oc2cc(O)ccc12 [FISETIN] | 350 | –
8 | O=c1oc2c(Br)c(O)ccc2c2ccc(O)cc12 | 7 | –
9 | COc1cc(OC)c(/C=C2\C(=O)Nc3ccccc32)c(OC)c1 | – | IC50 [3]: 1000 nM; IC50 [4]: 16000 nM
10 | CCCCCCCCCCCC1=C(O)C(=O)C2=C(OC(N)=C(C#N)C2[N+](=O)[O-])C1=O (stereo unspecified) | 220 | –
